Data taken from US9200269B2, “β-glucuronidase inhibitor” (priority 2007, dated 2015).
Like-named read-outs stand apart in the source and are kept apart here.

Molecular target: T1, β-glucuronidase Type VII-A derived from Escherichia coli (Escherichia coli, UniProt P05804)
T1 construct: purchased Sigma-Aldrich Corporation
Test: Inhibition of β-glucuronidase activity (PNPG substrate, absorbance at 400 nm)
Assay type: biochemical
Conditions: for Inhibition rate (%) Concentration 0.001%: 0.001 wt % in reaction solution
Description: 100 μL of a 2 mM PNPG aqueous solution, 40 μL of a 0.5 M phosphate buffer (pH 6.8), 38 μL of ion exchanged water and 2 μL of a 10 or 1 wt % dipropylene glycol (DPG) solution of various compounds or plant extracts were mixed in a bottle γ-ray sterilized in advance, and subsequently 20 μL of a β-glucuronidase aqueous solution adjusted to 16 units/mL was added, in order to allow the enzyme to react in a thermostat bath at 37° C. for 2 hours. Further, in the case of some of compounds, in addition to the above steps, the same experiment was performed using a 0.1 wt % DPG solution as well. As a result, the concentrations of the test compounds and plant extracts in the reaction solution were adjusted to 0.1, 0.01 and 0.001 wt %, respectively. Further, a product prepared by adding DPG in place of the above-mentioned compounds and plant extracts was used as a control, and a product prepared by adding ion exchanged water in place of an enzyme solution was used as a blank for each sample and control, and the respective products were allowed to react for 2 hours in the same manner. It should be noted that the plant extract sample was used as a solvent extract.
The above-mentioned reaction solution was diluted with a 0.2 M glycine buffer (pH 10.4) and measured for its absorbance at a wavelength of 400 nm. The relative activity inhibition rate of a β-glucuronidase was determined by using the obtained measurement value in accordance with the following equation. Absorbance change of control=Absorbance of control−Absorbance of blank for each control Absorbance change of sample=Absorbance of sample−Absorbance of blank for each sample Activity inhibition rate (%)=[(Absorbance change of control−Absorbance change of sample)/Absorbance change of control]×100

[1] = 2 h, pH 6.8, read-out: Inhibition rate (%) Concentration 0.01%
[2] = 2 h, pH 6.8, read-out: Inhibition rate (%) Concentration 0.1%
[3] = 0.01 wt % in reaction solution, 1.6 units/mL enzyme, 37° C., 2 hours, pH 6.8, read-out: Inhibition rate (%) Concentration 0.01%
[4] = 0.1 wt % in reaction solution, 1.6 units/mL enzyme, 37° C., 2 hours, pH 6.8, read-out: Inhibition rate (%) Concentration 0.1%
[5] = 0.01 wt % in reaction solution, 1.6 units/mL enzyme, 37° C., 2 hours, pH 6.8
[6] = 0.1 wt % in reaction solution, 1.6 units/mL enzyme, 37° C., 2 hours, pH 6.8
[7] = 1.6 units/mL enzyme, 37° C., 2 hours, pH 6.8

T1 sequence (P05804 whole entry): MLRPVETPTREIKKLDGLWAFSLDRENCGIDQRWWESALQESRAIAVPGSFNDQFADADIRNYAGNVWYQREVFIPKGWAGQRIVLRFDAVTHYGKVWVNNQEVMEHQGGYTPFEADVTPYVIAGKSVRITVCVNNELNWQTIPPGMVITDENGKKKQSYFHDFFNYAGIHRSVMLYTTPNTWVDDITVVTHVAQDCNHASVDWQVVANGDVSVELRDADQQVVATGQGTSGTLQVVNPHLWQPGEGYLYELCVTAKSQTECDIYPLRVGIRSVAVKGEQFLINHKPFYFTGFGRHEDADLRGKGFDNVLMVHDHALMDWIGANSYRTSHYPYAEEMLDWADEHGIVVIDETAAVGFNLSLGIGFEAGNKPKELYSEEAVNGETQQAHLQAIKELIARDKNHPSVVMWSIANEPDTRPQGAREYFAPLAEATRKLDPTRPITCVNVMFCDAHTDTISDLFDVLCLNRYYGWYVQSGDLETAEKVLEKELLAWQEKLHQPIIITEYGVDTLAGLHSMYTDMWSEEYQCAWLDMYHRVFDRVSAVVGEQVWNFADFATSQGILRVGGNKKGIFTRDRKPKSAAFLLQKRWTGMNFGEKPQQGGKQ

OC/C=C/c1ccccc1 [Cinnamic alcohol, cinnamic alcohol] gave an inhibition at 0.01 wt % [1] of 56.2% and an inhibition at 0.1 wt % [2] of 93.5%.
Work on Cc1ccc2c(c1)OCC(=O)CO2 [Calone, 7-methyl-3,4-dihydro-(2H)-1,5-benzodioxepin-3-one] yielded an inhibition at 0.01 wt % [3] of 17.3% and an inhibition at 0.1 wt % [4] of 73.3%.
For O=CCCc1ccccc1 [3-Phenylpropanal, 3-phenylpropanal], the inhibition at 0.01 wt % [3] was 23.3% and the inhibition at 0.1 wt % [4] was 81.7%.
For O=CCCC=C1CC2CC1C1CCCC21 (centres unmarked) [Dupical, 4-(tricyclo[5.2.1.0^2,6]decylidene-8)butenal], the “Inhibition rate (%) Concentration 0.01%” value [5] was 65.5% and the “Inhibition rate (%) Concentration 0.1%” value [6] was 73.5%.
CC1=CCCC2(C)OC2CCC(C)=CCC1 (centres unmarked) [Cedroxide, 4,8,12-trimethyl-13-oxabicyclo-[10.1.0]trideca-4,8-diene] showed an inhibition at 0.01 wt % [3] of 40.1% and an inhibition at 0.1 wt % [4] of 82.6%.
CCOc1cc(C=O)ccc1O [Ethylvanillin, ethylvanillin] gave an inhibition at 0.01 wt % [1] of 38.5% and an inhibition at 0.1 wt % [2] of 78.5%.
Molecule CC(C=O)Cc1ccc2c(c1)OCO2 (centres unmarked) [Helional, 2-methyl-3-(3,4-methylenedioxyphenyl)-propanal] has an inhibition at 0.01 wt % [3] of 32.4% and an inhibition at 0.1 wt % [4] of 76.4%.
With COC1(C)CCCCCCCCCCC1 [Madrox, 1-methyl-1-methoxycyclododecane] the inhibition at 0.01 wt % [3] was 60.9% and the inhibition at 0.1 wt % [4] was 92.4%.
For O=C1CCCCCCCC=CCCCCCCC1 [9-Cycloheptadecen-1-one, 9-cycloheptadecen-1-one], the “Inhibition rate (%) Concentration 0.001%” value [7] was 95.8%, the inhibition at 0.01 wt % [3] was 96.3% and the inhibition at 0.1 wt % [4] was 100%.
Work on C=CC(C)(CCC=C(C)C)OC(C)=O (centres unmarked) [Linalyl acetate, linalyl acetate] yielded an inhibition at 0.01 wt % [3] of 62.6% and an inhibition at 0.1 wt % [4] of 95.8%.
In the case of C=CC(C)(O)CCC=C(C)C (centres unmarked) [Linalool, linalool], the inhibition at 0.01 wt % [3] is reported as 31.7% and the inhibition at 0.1 wt % [4] is reported as 91%.
With O=C1CCCCCCCCOCCCCCCO1 [10-Oxa-16-hexadecanolide, 10-oxa-16-hexadecanolide] the “Inhibition rate (%) Concentration 0.001%” value [7] was 63.0%, the inhibition at 0.01 wt % [3] was 95.8% and the inhibition at 0.1 wt % [4] was 99.4%.
For O=C1CCCCC/C=C\CCCCCCCCO1 [7-Cyclohexadecenolide, 7-cyclohexadecenolide], the “Inhibition rate (%) Concentration 0.001%” value [7] was 88.1%, the “Inhibition rate (%) Concentration 0.01%” value [5] was 98.5% and the “Inhibition rate (%) Concentration 0.1%” value [6] was 99.6%.
C=CCc1ccc(O)c(OC)c1 [Eugenol, eugenol] was tested, and the inhibition at 0.01 wt % [3] was 36.8% and the inhibition at 0.1 wt % [4] was 93.2%.
In the case of C/C=C/C(=O)C1=C(C)CCCC1(C)C [β-Damascone, β-damascone], the “Inhibition rate (%) Concentration 0.01%” value [5] is reported as 39.5% and the “Inhibition rate (%) Concentration 0.1%” value [6] is reported as 77.3%.
For CCCCCCC#CC(=O)OC [Methyl-2-nonynoate, methyl-2-nonynoate], the inhibition at 0.01 wt % [3] was 95.3% and the inhibition at 0.1 wt % [4] was 98.2%.
With CC1CCCCCCCCCCCCC(=O)C1 (centres unmarked) [3-Methylcyclopentadecanone, 3-methylcyclopentadecanone] the inhibition at 0.01 wt % [3] was 57.3% and the inhibition at 0.1 wt % [4] was 86.4%.
In the case of O=C1CCC=CCCCCCCCCCCO1 [4(5)-Cyclopentadecenolide, 4(5)-cyclopentadecenolide], the “Inhibition rate (%) Concentration 0.01%” value [5] is reported as 47.1% and the “Inhibition rate (%) Concentration 0.1%” value [6] is reported as 76.5%.
CC1=CC(C)C(C=O)CC1 (centres unmarked) [Ligustral, dimethyltetrahydrobenzaldehyde] was tested, and the “Inhibition rate (%) Concentration 0.01%” value [5] was 30.1% and the “Inhibition rate (%) Concentration 0.1%” value [6] was 76.2%.
With CC(=O)/C=C/C1=C(C)CCCC1(C)C [β-Ionone, β-ionone] the “Inhibition rate (%) Concentration 0.01%” value [5] was 40.2% and the “Inhibition rate (%) Concentration 0.1%” value [6] was 81.1%.
Molecule COc1cc(C=O)ccc1O [Vanillin, vanillin] has an inhibition at 0.01 wt % [3] of 49.5% and an inhibition at 0.1 wt % [4] of 82.1%.
For CC/C=C\CC1=C(C)CCC1=O [cis-Jasmone, cis-jasmone], the “Inhibition rate (%) Concentration 0.001%” value [7] was 24.8%, the “Inhibition rate (%) Concentration 0.01%” value [5] was 77.2% and the “Inhibition rate (%) Concentration 0.1%” value [6] was 99.2%.
For C/C=C\C(=O)C1C(C)=CCCC1(C)C (stereo not drawn) [α-Damascone, α-damascone], the “Inhibition rate (%) Concentration 0.01%” value [5] was 42.6% and the “Inhibition rate (%) Concentration 0.1%” value [6] was 89.9%.
